One molecule from ChEMBL document CHEMBL4673209, “Discovery of a novel potent GPR40 full agonist” (Bioorg Med Chem Lett, 2018) can be followed below.

For one data set, the target named is Cytochrome P450 2D6 (Homo sapiens, UniProt P10635). Briefly: Inhibition of CYP2D6 (unknown origin). It counts as ADME.
The nature of data set [1]: Clearance in rat. It counts as ADME. The note with it: in vivo.
Another data set deals with T1, Cytochrome P450 1A2 (Homo sapiens, UniProt P05177).
T1 sequence (P05177 whole entry): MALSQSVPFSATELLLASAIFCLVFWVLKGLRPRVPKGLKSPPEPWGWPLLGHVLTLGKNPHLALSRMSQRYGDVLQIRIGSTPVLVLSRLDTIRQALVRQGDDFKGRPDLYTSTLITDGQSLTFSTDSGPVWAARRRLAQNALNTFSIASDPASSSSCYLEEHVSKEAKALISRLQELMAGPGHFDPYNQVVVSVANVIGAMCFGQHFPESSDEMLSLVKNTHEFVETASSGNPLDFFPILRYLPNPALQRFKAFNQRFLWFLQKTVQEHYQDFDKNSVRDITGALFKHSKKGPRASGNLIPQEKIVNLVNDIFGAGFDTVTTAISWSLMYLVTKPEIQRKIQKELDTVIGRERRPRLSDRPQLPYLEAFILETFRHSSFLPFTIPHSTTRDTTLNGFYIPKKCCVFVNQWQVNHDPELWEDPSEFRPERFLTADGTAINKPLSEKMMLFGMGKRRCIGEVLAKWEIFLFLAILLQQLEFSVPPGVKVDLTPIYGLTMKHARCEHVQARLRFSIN
Briefly: Inhibition of CYP1A2 (unknown origin). In kind it is ADME.

Data set [2] is described as follows: Volume of distribution at steady state in cynomolgus monkey. It counts as ADME, Macaca fascicularis. To be noted: in vivo, read-out: Vdss.
The target in data set [3] is T2, Peroxisome proliferator-activated receptor delta (Homo sapiens) (UniProt Q03181).
T2 sequence (whole entry): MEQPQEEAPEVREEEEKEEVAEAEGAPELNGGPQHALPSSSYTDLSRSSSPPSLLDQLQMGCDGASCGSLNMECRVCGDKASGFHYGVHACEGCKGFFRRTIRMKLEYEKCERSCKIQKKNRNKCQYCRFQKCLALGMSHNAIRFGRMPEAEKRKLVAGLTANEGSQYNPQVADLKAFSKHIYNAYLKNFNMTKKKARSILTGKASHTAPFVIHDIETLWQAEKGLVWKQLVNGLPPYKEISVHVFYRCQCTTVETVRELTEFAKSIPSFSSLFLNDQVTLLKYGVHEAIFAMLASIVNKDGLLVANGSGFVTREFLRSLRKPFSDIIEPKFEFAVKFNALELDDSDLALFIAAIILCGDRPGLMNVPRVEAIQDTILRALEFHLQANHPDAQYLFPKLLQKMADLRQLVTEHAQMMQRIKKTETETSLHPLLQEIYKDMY
Briefly: Agonist activity at PPARbeta (unknown origin).

For a further data set, the system named is Rattus norvegicus. Briefly: Anti-glycemic activity in fasted Sprague-Dawley ZDF rat assessed as increase in insulin secretion by measuring insulin level in plasma at 1 mg/kg administered 30 mins prior to glucose challenge measured after 140 mins by OGTT. To be noted: time 170 min, 2.833 h. It counts as functional.
The target of data set [4] is T3, Peroxisome proliferator-activated receptor alpha (Homo sapiens) (UniProt Q07869).
T3 sequence (whole entry): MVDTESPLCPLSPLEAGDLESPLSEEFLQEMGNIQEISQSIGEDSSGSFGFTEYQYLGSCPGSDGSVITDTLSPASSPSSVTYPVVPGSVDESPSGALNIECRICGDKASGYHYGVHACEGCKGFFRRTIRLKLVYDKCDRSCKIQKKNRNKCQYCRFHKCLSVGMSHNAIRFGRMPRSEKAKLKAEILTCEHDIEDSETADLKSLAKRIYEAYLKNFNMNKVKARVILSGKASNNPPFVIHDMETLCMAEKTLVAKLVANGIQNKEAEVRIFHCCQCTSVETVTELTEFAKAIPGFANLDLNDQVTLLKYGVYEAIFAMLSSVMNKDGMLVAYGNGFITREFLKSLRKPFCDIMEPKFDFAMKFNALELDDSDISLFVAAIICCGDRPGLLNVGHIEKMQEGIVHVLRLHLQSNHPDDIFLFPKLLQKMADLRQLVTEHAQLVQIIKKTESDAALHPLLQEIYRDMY
Briefly: Agonist activity at PPARalpha (unknown origin).

The source made the active and inactive calls. No cut-off for these calls is given here. Some results are limits rather than exact numbers.

Cytochrome P450 2D6, sequence (P10635 whole entry): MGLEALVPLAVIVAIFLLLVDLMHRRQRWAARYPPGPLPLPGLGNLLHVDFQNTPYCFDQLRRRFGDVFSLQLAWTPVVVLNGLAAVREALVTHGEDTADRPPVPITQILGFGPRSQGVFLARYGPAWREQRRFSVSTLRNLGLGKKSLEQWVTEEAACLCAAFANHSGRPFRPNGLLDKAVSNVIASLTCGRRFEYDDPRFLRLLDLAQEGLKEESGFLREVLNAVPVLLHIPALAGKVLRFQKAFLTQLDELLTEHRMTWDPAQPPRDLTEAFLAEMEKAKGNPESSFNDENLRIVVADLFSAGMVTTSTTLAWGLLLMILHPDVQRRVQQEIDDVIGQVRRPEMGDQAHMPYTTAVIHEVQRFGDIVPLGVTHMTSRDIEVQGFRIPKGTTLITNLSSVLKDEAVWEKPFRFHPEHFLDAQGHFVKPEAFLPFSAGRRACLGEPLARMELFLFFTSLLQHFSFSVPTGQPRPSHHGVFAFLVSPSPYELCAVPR

On to `COc1cc(-c2ncc(COc3cccc([C@@H](CC(=O)O)C4CC4)c3)nc2CC(C)C)c(F)cn1`, for which the half-inhibitory concentration (IC50) at Cytochrome P450 2D6 and on Cytochrome P450 1A2 was more than 10 µM in each case. Besides, the clearance – broadly, a measure of how efficiently the substance is removed, as volume per time – in data set [1] stood at 2.37 mL/min/kg. Moreover, in data set [2], the Vd turned out to be 1.06 L/kg. The result in data set [3] and in data set [4] was inactive. Also, in the data set on Rattus norvegicus, the Activity stood at 1405 ng/mL.
